US6689381B2, “Liposomal benzoquinazoline thymidylate synthase inhibitor formulations” (OSI Pharmaceuticals, Inc., priority 2000, dated 2004)

Test system: human colon tumor xenograft model (HCT-8, thymidine kinase (TK)-/-)
Assay: HCT-8 xenograft, NX1843 dose schedule study and combinations with 5-FU, NX211 and GW1843 (Table 27)
Assay type: in vivo, nude mice
Method: Female Nu/Nu mice (18-24 g, 10-14 weeks old) were obtained from Harlan Sprague Dawley, and housed in microisolator filtration racks and maintained with filtered acidified water and sterile lab chow ad libitum. […] Animals were allowed to acclimate to their new environment for 1 week prior to tumor cell implantation. Tumors were established by injecting harvested tumor cells in a single subcutaneous site on the flank of the mice in the axillary region. The tumors were grown until approximately 200+/−50 mm^3 in size. The animals were then sorted according to body weight, grouped four animals/cage, and tattooed on the tail for permanent identification. Groups consisting of 8 tumor-bearing mice each were administered weekly doses of experimental agents by IV bolus injection through the tail vein. Tumor volumes were determined with vernier caliper measurements taken at right angles using the formula, (L×W^2/2) and body weights, were collected twice weekly. Data was plotted as % change in body weight vs. time in days, and % tumor volume increase vs. days.
T=(mean) time in days for treated group to reach cutoff size (2 grams)
C=(mean) time in days for control group to reach cutoff size (2 grams)
WC is the mean tumor weight of control group at time x
Wt is mean tumor weight of treated group at time x
% Regression=100 (Wo−Wi)/Wo; where Wo is the mean tumor weight for treated group at the initiation of treatment and Wi=the mean tumor weight for that group at time some time x after treatment.
In addition to these dose groups the free drug was dosed at 100 mg/kg on days 1-5, and repeated for a second week.

For `O=c1[nH]cc(F)c(=O)[nH]1` [Lot 5-FU, 5-fluorourcil, reference compound], the “% TGI” value (100 mg/kg, QD1, 8) was 72%, the Cures (100 mg/kg, QD1, 8) was 0 and the LCK (100 mg/kg, QD1, 8) was 1.5. The “% Regression day 22” value (100 mg/kg, QD1, 8, day 22) was 0% and the “log cell kill (LCK)” value (iv, NX1843 25 mg/kg d1,8, 15 mg/kg QD(1,3,5)×2 or 7.5 mg/kg QD(1-5)×2, GW1843 100 mg/kg d1-5 ×2, 5FU 100 mg/kg d1,8, NX211 6 mg/kg d1,8, combinations at same doses) was 1.5.
